Bridges are numbered along the chain shown (N, C = ends). Where no end group is shown, it is not given here.
Columns and labels:
[1] = system: Lactobacillus brevis 1105; assay: HBD-3 activity in beer fermentations: brew samples seeded with bacteria incubated with HBD-3; type: cell-based; conditions: HBD-3 5 μg/mL; day 14 brew samples; seeded day 6 at 10^2 and 10^4 cfu/ml; two independent fermentations
[2] = system: lager yeast CBMS; assay: Cytotoxic effects of HBD-3 against the lager yeast; type: cell-based, Saccharomyces pastorianus; conditions: data not shown
Experimental: (§1) To test the activity of β-Defensin-3 against beer-spoiling bacteria, a defensin bioassay was carried out as described in the Methods section. Since our goal was to express HBD-3 in lager yeast, the cytotoxic effects of HBD-3 against the lager yeast CBMS was also examined. […] The minimum inhibitory concentration (MIC) values for HBD-3 against Lb. brevis and Lb. malefermentas were 5 μg/ml 0.5 μg/ml respectively. The LD-100 and MIC were lower than that required against other gram positive strains such as S. mutans, S. pyogenes, and […]. […] (data not shown).

[3] = system: beer spoilage bacteria; assay: Beer spoilage challenge in the bottled product (pilot scale 50 L fermentations); conditions: bottled product from CM-PGK-51 fermentation; no freeze-thawing cycle; larger than usual amounts of bacteria
Experimental: Pilot scale fermentations (50 L) were carried out using CM-PGK-51 as a starter culture.

[4] = system: Lb. brevis; assay: In situ antimicrobial activity of HBD-3 secreted from yeast strains under fermentation conditions; type: cell-based, Lactobacillus brevis; conditions: summary statement, spoilage bacteria
Experimental: Yeast strains were grown up from single colonies in 3 mL YEP-Maltose medium (YEPM) and expanded to 2 liters. 40% (w/v) wort was reconstituted in water from spray-dried malt (Belgium) supplemented with 1 mM Zinc and autoclaved. The wort was diluted to give 1.02-1.060 g/mL density (10-15° Plato), and aerated. The yeast harvested from the 2 liter YEPM medium was resuspended in the diluted wort to give a yeast concentration of 1−1.5×10^7 cells/mL in either 250 ml sterile glass cylinders or in 2 L cylindro-conical EBC vessels. Wort was aerated once with compressed air, bubbling from the bottom of the vessel and anaerobic conditions were maintained by overlying with mineral oil. Flasks were incubated at a 45° angle, and incubated at 11-13° C. The density of the solution was measured every other day for 14 days. Samples were also used for the measurement of HBD-3 in the medium. At the end of the brewing period, yeast were recovered and stored for re-pitching if required. To test the efficacy of the HBD-3-yeast to prevent beer spoilage, individual beer spoilage bacterial strains (10^3/mL) were introduced along with pitching yeast. The surviving bacteria were quantified every other day along with viable yeast cells in the brew. The physical and chemical characteristics of the brew as well as taste and palatability were also measured with the help of healthy volunteers. […]

[5] = system: Lactobacillus malifermentus; type: cell-based
Experimental: (§2) Cultures of Lactobacillus brevis L1055 or a control bacterium Staphylococcus aureus-were cultured at 37° C. overnight in MRS media (10 g litre^−1 universal peptone, 5 g litre^−1 meat extract, 5 g litre^−1 yeast extract, 20 g litre^−1 D(+)-glucose, 2 g litre^−1 K2HPO4, 2 g litre^−1 diammonium hydrogen citrate, 5 g litre NaOAc, 0.1 g litre^−1 MgSO4, 0.05 g litre^−1 MnSO4, final pH 6.5+/−0.2 at 37° C.). To prevent yeast growth in samples taken from fermentations seeded with L. brevis, the MRS medium was supplemented with cycloheximide at 10 μg/ml. The cultures were diluted to give a final densitiy of approximately 10^3 cells/mL. Synthetic HBD (0.5-10 μg/mL) was added to the bacterial cultures in a final volume of 100 μl volumes. CMBS cultures containing the pGREG, HBD-3-505V or HBD-3-506V were grown in overnight synthetic medium plus galactose (2%). The supernatants were concentrated (1000-fold) using molecular filtration membranes [Molecular Weight Cut Off (MWCO) 2000] ensuring all unspent sugar was removed from the medium. The concentrated supernatants were added to the bacterial cultures as described above. Following a two-hour incubation at 37° C., the number of bacterial colonies in each sample was determined following incubation on MRS plates containing cycloheximide at 37° C. for 48 hrs.
as §1

[6] = system: Lactobacillus brevis; type: cell-based
Experimental: as §2, §1

[7] = synthetic HBD-3, two-hour incubation at 37° C.

## GIINTLQKYYCRVRGGRCAVLSCLPKEEQIGKCSTRGRKCCRRKK (disulfide 11-40, 18-33, 23-41 (inferred)) [HBD-3, human β-defensin-3]
[1]
  reduction of bacterial load in the wort: 100 fold
[2]
  HBD-3 concentrations at which lager yeasts were resistant: up to 100 μg/ml
[3]
  protective effects in beer spoilage challenge: did not reveal any protective effects
[4]
  reduction of bacterial load after quick freezing of the brew: 90-95%
[5]; synthetic HBD-3
  minimum inhibitory concentration (MIC): 0.5 µg/mL
[5]; [7]
  LD-100 (effectively killed at concentration): 1 µg/mL
[6]; synthetic HBD-3
  minimum inhibitory concentration (MIC): 5 µg/mL
[6]; [7]
  LD-100 (effectively killed at concentration): 10 µg/mL
